Earlier results in patent publication US20110223258A1 (priority 2008, published 2011).

Conditions: aqueous solution

## O=P([O-])(O)O.O=P([O-])(O)O.O=P([O-])(O)O.[Fe+3] [Fe(H2PO4)3, iron(III) dihydrogen phosphate]
  Stability in solution: decomposes in the solution as a result of hydrolysis
